These results are taken from patent US20220106296A1, “CYANOTRIAZOLE COMPOUNDS AND USES THEREOF” (Novartis AG, priority 2018, published 2022).

Experiment [1] has as its system T.b. gambinese STIB930. The experiment in a line: T.b. gambiense growth inhibition assay. The class given is cell-based. The settings on record: Trypanosoma brucei, read-out: (b) T.b.g* IC50. Here is the method: Bloodstream form of T. b. brucei Lister427 strain was obtained from the Genomics Institute of the Novartis Research Foundation. This strain was used for carrying out growth inhibition and kill kinetics assays. T. b. gambiense STIB930 and T. b. rhodesiense STIB900 were obtained from Swiss TPH, were used for carrying out the growth inhibition assays. Bloodstream form of T. b. gambiense and T. b. rhodesiense were also grown in HMI-9 media, described above, but the media was supplemented by 5% human serum and 5% heat-inactivated FBS instead of 10% FBS. To determine compound growth inhibitory potency on T. b. brucei Lister427 bloodstream form parasites, 200 nL of 10-point, 3 fold serially diluted compounds in DMSO were transferred to the wells of white, solid bottom 384-well plates (Greiner Bio-One) by either Echo 555 acoustic liquid handling system or Mosquito. Then, 1×10^4 of T. b. brucei parasites in 40 μL of HMI-9 medium were added to each well, and the plates were incubated for 48 hours at 37° C. in 5% CO2 incubators. Parasite numbers in individual plate wells were determined through quantification of intracellular ATP amount. The CellTiter-Glo luminescent cell viability reagent (Promega) was added to plate wells, and ATP-dependent luminescence signal was measured on Tecan M1000 plate Reader after 30 min incubation. Luminescence values in wells with compounds were divided by the average luminescence value of the plate DMSO controls, and used for calculation of compound IC50 values. Similar assay was also used for determining IC50 against T.b. gambinese STIB930 and T. b. rhodesiense STIB900 strains, but the initial concentration of cells used was 3×10^4 parasites/ml.

For experiment [2], the system named is intracellular T. cruzi amastigotes. As to the kind of experiment: T. cruzi amastigote growth inhibition assay (NIH 3T3 host cells, β-galactosidase readout). The class given is cell-based. The conditions noted are these: Trypanosoma cruzi, NIH3T3, read-out: (c) T.c.* IC50. As to the method: NIH 3T3 fibroblast cells (ATCC) were maintained in RPMI-1640 medium (Life Technologies) supplemented with 10% heat-inactivated fetal bovine serum and 100 IU penicillin/100 μg/ml streptomycin at 37° C./5% CO2. T. cruzi Tulahuen parasites constitutively expressing E. coli β-galactosidase were maintained in tissue culture as an infection in NIH 3T3 fibroblast cells. Briefly, 2×10^7 T. cruzi trypomastigotes were used to infect 6×10^5 NIH 3T3 cells growing in T75 CELLSTAR tissue culture flasks and cultured at 37° C./5% CO2 until proliferating intracellular parasites lysed host 3T3 cells and were released into the culture medium (typically 6-7 days). During the infection, the tissue culture medium was changed every two days. Number of T. cruzi trypomastigotes present in 1 ml of medium was determined using a haemocytometer.
To determine compound potency on intracellular T. cruzi amastigotes, NIH 3T3 cells were re-suspended in phenol red-free RPMI-1640 medium containing 3% heat-inactivated fetal bovine serum and 100 IU penicillin/100 μg/ml streptomycin, seeded at 1,000 cells/well (40 μl) in white, clear bottom 384-well plates (Greiner Bio-One), and incubated overnight at 37° C./5% CO2. The following day, 100 nl of each compound in DMSO were transferred to individual plate wells by Echo 555 acoustic liquid handling system. After one hour incubation, 1×10^6 of tissue culture-derived T. cruzi trypomastigotes, in 10 μl of phenol red-free RPMI-1640 medium supplemented with 3% heat-inactivated fetal bovine serum and 100 IU penicillin/100 μg/ml streptomycin were added to each well. Plates were then incubated for 6 days at 37° C./5% CO2. Intracellular T. cruzi parasites were quantified by measuring the activity of parasite-expressed β-galactosidase. Ten microliters of a chromogenic β-galactosidase substrate solution (0.6 mM chlorophenol red-β-D-galactopyranoside/0.6% NP-40 in PBS; both reagents from Calbiochem) were added to each well and incubated for 2 h at room temperature. After incubation, absorption was measured at 570 nm on SpectraMax M2 plate reader (Molecular Devices). Measured absorbance values in wells with compounds were divided by the average absorbance value of the plate DMSO controls, and used for calculation of compound EC50 values as described above.

Experiment [3] has as its system T. b. brucei Lister427 bloodstream form parasites. As to the kind of experiment: T. b. brucei growth inhibition assay (CellTiter-Glo, 48 hours). The class given is cell-based. The conditions noted are these: Trypanosoma brucei. In outline:
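1×10^4 bloodstream-form parasites/well in HMI-9 medium exposed to 10-point, 3-fold compound dilutions for 48 h at 37 °C, 5% CO2. Parasite number quantified as intracellular ATP by CellTiter-Glo luminescence, normalized to DMSO controls for IC50 calculation.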
Background: ATP-based viability assays read luminescence as a measure of living cells.

Experiment [4] concerns Leishmania donovani axenic amastigote. As to the kind of experiment: Growth inhibition of Leishmania donovani axenic amastigote. The class given is cell-based. The conditions noted are these: L. donovani growth inhibition, read-out: (d) L.d* IC50. As to the method:
Leishmania donovani axenic amastigote parasites are grown at 37° C., 5% CO2 in media made of RPMI 1640, 4 mM L-glutamine, 20% heat inactivated FBS, 100 units/ml of penicillin and 100 μg/ml of streptomycin, 23 μM Folic Acid, 100 μM Adenosine, 22 mM D-glucose, 25 mM MES. The pH of media is adjusted to 5.5 at 37° C. using HCl. 20 μL of media is first dispensed into 384 well plates and 100 nL of the compounds of invention in DMSO are added to the plate wells. At the same time control compounds and DMSO are added to plates to serve as the positive and negative controls, respectively. 40 μL of parasite culture (9600 parasites) are then added to the plate wells. The plates are then placed into incubators. After 2 day incubation, 20 μL of Cell TiterGlo (Promega) is added to the plate wells. The luminescence signal of each well is measured using the Envision reader (Perkin Elmer). The percentage inhibition of 50%, EC50, is calculated for each of the compounds.

For experiment [5], the system named is stage I mouse model, hemolymphatic (blood stream) form of human infection. The experiment in a line: Stage I mouse model of HAT. The class given is in vivo. An excerpt:
(§1) Based on the favorable in vitro and in vivo pharmacological properties, selected cyanotraizole compounds were chosen for testing in stage I and stage II mice models. The stage I mouse model represents the hemolymphatic (blood stream) form of human infection.

In experiment [6] the test system is stage II mouse model, CNS form of the disease. As to the kind of experiment: Stage II mouse model of HAT. The class given is in vivo.
Excerpt: as §1

The IC50 is the concentration that inhibits the measured activity by half. For `N#Cc1ncn(CC(=O)N2Cc3ccc(-c4ccc(F)cc4Cl)cc3C2)n1` [Example 37, 1-(2-(5-(2-chloro-4-fluorophenyl)isoindolin-2-yl)-2-oxoethyl)-1H-1,2,4-triazole-3-carbonitrile], the half-maximal inhibitory concentration (IC50) was 100 to 1000 nM in experiment [1], below 100 nM in experiment [2] and 100 to 1000 nM in experiment [3].
Consider `N#Cc1ncn(CC(=O)N2Cc3ccc(-c4cccnc4C(F)(F)F)cc3C2)n1` [Example 85, 1-(2-oxo-2-(5-(2-(trifluoromethyl)pyridin-3-yl)isoindolin-2-yl)ethyl)-1H-1,2,4-triazole-3-carbonitrile], for which the IC50 was at least 1000 nM in experiment [4], below 100 nM in experiment [1], below 100 nM in experiment [2] and below 100 nM in experiment [3]. Further, the “cure in stage I mouse model” value in experiment [5] (10 mg/kg QD) is reported as “complete cure without relapse”. Moreover, the “cure in stage II mouse model” value in experiment [6] (15 mg/kg QD) was “complete cure without relapse”.
With `N#Cc1ncn(CC(=O)N2Cc3ccc(-c4cc(F)cnc4C(F)(F)F)cc3C2)n1` [Example 8, 1-(2-(5-(5-fluoro-2-(trifluoromethyl)pyridin-3-yl)isoindolin-2-yl)-2-oxoethyl)-1H-1,2,4-triazole-3-carbonitrile], the “cure in stage I mouse model” value in experiment [5] (10 mg/kg QD) is given as “complete cure without relapse”. Further, the 50% inhibitory concentration (IC50) in experiment [2] and in experiment [3] was 100 to 1000 nM in each case. For the same compound, in experiment [6] (10 mg/kg QD), the “cure in stage II mouse model” value is “complete cure without relapse”.
In the case of `COc1ccc(-c2ccc3c(c2)CN(C(=O)Cn2cnc(C#N)n2)C3)c(Cl)c1` [Example 34, 1-(2-(5-(2-chloro-4-methoxyphenyl)isoindolin-2-yl)-2-oxoethyl)-1H-1,2,4-triazole-3-carbonitrile], the concentration for half-maximal inhibition (IC50) is at least 1000 nM in experiment [4], 100 to 1000 nM in experiment [1], below 100 nM in experiment [2] and 100 to 1000 nM in experiment [3].
As to `N#Cc1ncn(CC(=O)N2Cc3ccc(-c4cc(F)c(F)cc4Cl)cc3C2)n1` [Example 30, 1-(2-(5-(2-chloro-4,5-difluorophenyl)isoindolin-2-yl)-2-oxoethyl)-1H-1,2,4-triazole-3-carbonitrile], the half-inhibitory concentration (IC50) in experiment [4] is at least 1000 nM; in experiment [1], 100 to 1000 nM; in experiment [2] it was below 100 nM; in experiment [3] it was below 100 nM.
As for `N#Cc1ncn(CC(=O)N2Cc3ccc(-c4ccccc4Cl)cc3C2)n1` [Example 33, 1-(2-(5-(2-chlorophenyl)isoindolin-2-yl)-2-oxoethyl)-1H-1,2,4-triazole-3-carbonitrile], the IC50 is at least 1000 nM in experiment [4], 100 to 1000 nM in experiment [1], below 100 nM in experiment [2] and 100 to 1000 nM in experiment [3].
For the compound `COc1ccc(-c2ccc3c(c2)CN(C(=O)Cn2cnc(C#N)n2)C3)c(C(F)(F)F)c1` [Example 31, 1-(2-(5-(4-methoxy-2-(trifluoromethyl)phenyl)isoindolin-2-yl)-2-oxoethyl)-1H-1,2,4-triazole-3-carbonitrile], the IC50 was at least 1000 nM in experiment [4], 100 to 1000 nM in experiment [1], below 100 nM in experiment [2] and below 100 nM in experiment [3].
For the compound `N#Cc1ncn(CC(=O)N2Cc3ccc(-c4ccc(F)cc4C(F)(F)F)cc3C2)n1` [Example 29, 1-(2-(5-(4-fluoro-2-(trifluoromethyl)phenyl)isoindolin-2-yl)-2-oxoethyl)-1H-1,2,4-triazole-3-carbonitrile], the IC50 in experiment [4] was at least 1000 nM; in experiment [1], 100 to 1000 nM; in experiment [2] it was below 100 nM; in experiment [3] it was below 100 nM. In experiment [5] (10 mg/kg BID), the “cure in stage I mouse model” value is “complete cure without relapse”. The “cure in stage II mouse model” value in experiment [6] (100 mg/kg QD) is “complete cure without relapse”.
In the case of `N#Cc1ccc(F)c(-c2ccc3c(c2)CN(C(=O)Cn2cnc(C#N)n2)C3)c1` [Example 41, 1-(2-(5-(5-cyano-2-fluorophenyl)isoindolin-2-yl)-2-oxoethyl)-1H-1,2,4-triazole-3-carbonitrile], the IC50 is at least 1000 nM in experiment [4], 100 to 1000 nM in experiment [1], below 100 nM in experiment [2] and 100 to 1000 nM in experiment [3].
For `N#Cc1ncn(CC(=O)N2Cc3ccc(-c4ccncc4C(F)(F)F)cc3C2)n1` [Example 27, 1-(2-oxo-2-(5-(3-(trifluoromethyl)pyridin-4-yl)isoindolin-2-yl)ethyl)-1H-1,2,4-triazole-3-carbonitrile], the 50% inhibitory concentration (IC50) in experiment [1], in experiment [2] and in experiment [3] was below 100 nM each time.
Turning to `N#Cc1ncn(CC(=O)N2Cc3ccc(-c4cc(F)c(F)cc4F)cc3C2)n1` [Example 45, 1-(2-oxo-2-(5-(2,4,5-trifluorophenyl)isoindolin-2-yl)ethyl)-1H-1,2,4-triazole-3-carbonitrile], the half-maximal inhibitory concentration (IC50) in experiment [1], in experiment [2] and in experiment [3] was 100 to 1000 nM each time.
As to `N#Cc1ncn(CC(=O)N2Cc3ccc(-c4ccc(Cl)cc4Cl)cc3C2)n1` [Example 38, 1-(2-(5-(2,4-dichlorophenyl)isoindolin-2-yl)-2-oxoethyl)-1H-1,2,4-triazole-3-carbonitrile], the IC50 in experiment [4] was at least 1000 nM; in experiment [1], 100 to 1000 nM; in experiment [2] it was below 100 nM; in experiment [3], 100 to 1000 nM.
